Data as given in patent publication US20090062294A1, “HETEROARYL-SUBSTITUTED UREA MODULATORS OF FATTY ACID AMIDE HYDROLASE” (priority 2007, published 2009).

Tested on: mechanical (tactile) allodynia in the left hind paw
Assay: Assay Method 3: Rat Mild Thermal Injury Model (MTI), mechanical allodynia
Assay type: in vivo, Sprague-Dawley rats
Conditions: 10 mg/Kg p.o.; 0.5 h after administration; mean +/- S.E.M.
From the text: Assay Method 3—Rat Mild Thermal Injury Model (MTI)
Pathogen-free, male albino Sprague-Dawley rats were purchased from Harlan Industries (San Diego, Calif.) and maintained on a 12-h light/dark cycle (lights on at 9:00 AM and off at 9:00 PM) in a climate-controlled room. Food and water were available ad libitum up to the time of the testing.
Under isoflurane/oxygen anesthesia, a first-degree burn injury (erythema without blistering) was produced as follows: the plantar surface of the rat's left hind paw was placed on water-dampened 56° C. hotplate for 20 seconds and steady contact was maintained by applying an 84 g weight to the dorsum (after Nozaki-Taguchi & Yaksh, Neurosci. Lett. 1998, 254, 25-28).
Mild thermal injury results in mechanical allodynia in the left hind paw. Mechanical (tactile) allodynia was assessed by determining the median threshold at which the affected paw was withdrawn from graded stimuli (von Frey filaments ranging from 0.41 to 15.8 g) applied perpendicularly with sufficient force to bend slightly and held for 2-3 seconds against the proximal half of the third and fourth toe surfaces through wire-mesh observation cages. Paw flinching during or immediately following the removal of the stimulus was considered a positive response. A paw withdrawal threshold (PWT) was determined by sequentially increasing and decreasing the stimulus strength and analyzing withdrawal data using an adaptation of the Dixon up-down method, as described (Chaplan et al., J. Neurosci. 1994, 53, 55-63). Rats were included in the study only if their baseline PWT was 3.1623 g or lower (4.5 logarithmically).
Rats were tested for pre-injury thresholds prior to mild thermal injury and again for baseline thresholds after development of mechanical allodynia. Immediately after baseline measurement, test compound or vehicle was administered orally and the measurement was repeated at 0.5 h after administration. The tactile thresholds (log value) were converted to percent of a maximum possible effect ( %MPE): % MPE=[Threshold(t)−Threshold(baseline)]*100/[Threshold(pre)−Threshold(baseline)], where t=post-treatment time. Data were expressed as mean±standard error of the mean (S.E.M.). Statistical analysis was performed using two-way ANOVA with repeated measures with a significance level of p<0.05.
Results for compounds tested in this assay are presented in Table 2, as an average of results obtained. Compounds were tested in free base, hydrochloride salt, and/or trifluoroacetic acid salt forms.

SMILES	% MPE
O=C(Nc1noc2ccccc12)N1CCN(Cc2cccc(Oc3ccc(C(F)(F)F)cc3)c2)CC1 [Example 109, N-1,2-Benzisoxazol-3-yl-4-{3-[4-(trifluoromethyl)phenoxy]benzyl}-piperazine-1-carboxamide]	0%
O=C(Nc1noc2cc(F)ccc12)N1CCN(Cc2cccc(Oc3ccc(Cl)cc3)c2)CC1 [Example 245, 4-[3-(4-Chloro-phenoxy)-benzyl]-piperazine-1-carboxylic acid (6-fluoro-benzo[d]isoxazol-3-yl)-amide]	36 +/− 10%
